Reference: the supplement of paper PMC10307832

Key:
Assay in all cases: relative viability (nuclei count vs DMSO), 5 days (fraction); higher = more cells survive
A-427 = tested on: A-427
Method in brief: (§1)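 Relative viability is defined as nuclei in treated wells over nuclei in vehicle wells. Duplicate plates were run and medians reported. Lung cancer cell lines in 1536-well plates were dosed by pin tool one day after seeding, with one drug or with a fixed anchor-drug dose plus five library-drug doses (not always all listed) in √10 steps, and nuclei were counted after 5 days.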

A549 = tested on: A549
Method in brief: as §1

CAL-12T = tested on: CAL-12T
Method in brief: as §1

Calu-6 = tested on: Calu-6
Method in brief: as §1

EBC-1 = tested on: EBC-1
Method in brief: as §1

IA-LM = tested on: IA-LM
Method in brief: as §1

LK-2 = tested on: LK-2
Method in brief: as §1

NCI-H1299 = tested on: NCI-H1299
Method in brief: as §1

NCI-H1651 = tested on: NCI-H1651
Method in brief: as §1

NCI-H1703 = tested on: NCI-H1703
Method in brief: as §1

NCI-H1755 = tested on: NCI-H1755
Method in brief: as §1

Cc1csc(=NC2CCCCC2)n1/N=C/c1ccc(O)c(O)c1O [MIM1] + Cc1nc(NC(=O)N2CCC[C@H]2C(N)=O)sc1-c1ccnc(C(C)(C)C(F)(F)F)c1 [Alpelisib] (partner 2 µM) gave a relative viability (A-427; first compound 0.2 µM) of 1.09, a relative viability (A-427; first compound 0.6325 µM) of 1.06 and a relative viability (A-427; first compound 2 µM) of 1.15. It also gave a relative viability (A-427; first compound 6.325 µM) of 1.06, a relative viability (A-427; first compound 20 µM) of 0.335 and a relative viability (A549; first compound 0.2 µM) of 0.69. The relative viability (A549; first compound 0.6325 µM) was 0.879, the relative viability (A549; first compound 2 µM) was 0.79 and the relative viability (A549; first compound 6.325 µM) was 0.56. For the same compound, the relative viability (A549; first compound 20 µM) was 0.102, the relative viability (CAL-12T; first compound 0.2 µM) was 1.14 and the relative viability (CAL-12T; first compound 0.6325 µM) was 1.36. For the same compound, the relative viability (CAL-12T; first compound 2 µM) was 1.24, the relative viability (CAL-12T; first compound 6.325 µM) was 0.997 and the relative viability (CAL-12T; first compound 20 µM) was 0.973. It also gave a relative viability (Calu-6; first compound 0.2 µM) of 0.971, a relative viability (Calu-6; first compound 0.6325 µM) of 1.02 and a relative viability (Calu-6; first compound 2 µM) of 0.813. For the same compound, the relative viability (Calu-6; first compound 6.325 µM) was 0.339, the relative viability (Calu-6; first compound 20 µM) was 0.208 and the relative viability (EBC-1; first compound 0.2 µM) was 0.801. It also gave a relative viability (EBC-1; first compound 0.6325 µM) of 0.862, a relative viability (EBC-1; first compound 2 µM) of 0.785 and a relative viability (EBC-1; first compound 6.325 µM) of 0.531. The relative viability (EBC-1; first compound 20 µM) was 0.296, the relative viability (IA-LM; first compound 0.2 µM) was 0.829 and the relative viability (IA-LM; first compound 0.6325 µM) was 0.805. The relative viability (IA-LM; first compound 2 µM) was 0.644, the relative viability (IA-LM; first compound 6.325 µM) was 0.266 and the relative viability (IA-LM; first compound 20 µM) was 0.148. For the same compound, the relative viability (LK-2; first compound 0.2 µM) was 0.958, the relative viability (LK-2; first compound 0.6325 µM) was 1.04 and the relative viability (LK-2; first compound 6.325 µM) was 0.963. The relative viability (LK-2; first compound 20 µM) was 0.374, the relative viability (NCI-H1299; first compound 0.2 µM) was 1.01 and the relative viability (NCI-H1299; first compound 0.6325 µM) was 1.05. For the same compound, the relative viability (NCI-H1299; first compound 2 µM) was 1.06, the relative viability (NCI-H1299; first compound 6.325 µM) was 1.01 and the relative viability (NCI-H1299; first compound 20 µM) was 0.87. It also gave a relative viability (NCI-H1651; first compound 0.2 µM) of 0.927, a relative viability (NCI-H1651; first compound 0.6325 µM) of 0.974 and a relative viability (NCI-H1651; first compound 2 µM) of 0.921. It also gave a relative viability (NCI-H1651; first compound 6.325 µM) of 0.793, a relative viability (NCI-H1651; first compound 20 µM) of 0.936 and a relative viability (NCI-H1703; first compound 0.2 µM) of 0.329. It also gave a relative viability (NCI-H1703; first compound 0.6325 µM) of 0.34, a relative viability (NCI-H1703; first compound 2 µM) of 0.352 and a relative viability (NCI-H1703; first compound 6.325 µM) of 0.171. It also gave a relative viability (NCI-H1703; first compound 20 µM) of 0.123, a relative viability (NCI-H1755; first compound 0.2 µM) of 0.93 and a relative viability (NCI-H1755; first compound 0.6325 µM) of 0.953. For the same compound, the relative viability (NCI-H1755; first compound 2 µM) was 0.961, the relative viability (NCI-H1755; first compound 6.325 µM) was 0.72 and the relative viability (NCI-H1755; first compound 20 µM) was 0.207.
With CCNC(=O)c1noc(-c2cc(C(C)C)c(O)cc2O)c1-c1ccc(CN2CCOCC2)cc1 [Luminespib] + Cc1nc(NC(=O)N2CCC[C@H]2C(N)=O)sc1-c1ccnc(C(C)(C)C(F)(F)F)c1 [Alpelisib] (partner 2 µM) the relative viability (A-427; first compound 0.002 µM) was 1.02, the relative viability (A-427; first compound 0.006325 µM) was 1.07 and the relative viability (A-427; first compound 0.02 µM) was 0.697. For the same compound, the relative viability (A-427; first compound 0.06325 µM) was 1.08, the relative viability (A-427; first compound 0.2 µM) was 1.09 and the relative viability (A549; first compound 0.002 µM) was 0.804. The relative viability (A549; first compound 0.006325 µM) was 0.71, the relative viability (A549; first compound 0.02 µM) was 0.255 and the relative viability (A549; first compound 0.06325 µM) was 0.0392. For the same compound, the relative viability (A549; first compound 0.2 µM) was 0.036, the relative viability (CAL-12T; first compound 0.002 µM) was 1.21 and the relative viability (CAL-12T; first compound 0.006325 µM) was 1.25. It also gave a relative viability (CAL-12T; first compound 0.02 µM) of 1.02, a relative viability (CAL-12T; first compound 0.06325 µM) of 0.192 and a relative viability (CAL-12T; first compound 0.2 µM) of 0.0844. It also gave a relative viability (Calu-6; first compound 0.002 µM) of 0.975, a relative viability (Calu-6; first compound 0.006325 µM) of 0.949 and a relative viability (Calu-6; first compound 0.02 µM) of 0.783. For the same compound, the relative viability (Calu-6; first compound 0.06325 µM) was 0.131, the relative viability (Calu-6; first compound 0.2 µM) was 0.12 and the relative viability (EBC-1; first compound 0.002 µM) was 0.825. The relative viability (EBC-1; first compound 0.006325 µM) was 0.741, the relative viability (EBC-1; first compound 0.02 µM) was 0.228 and the relative viability (EBC-1; first compound 0.06325 µM) was 0.146. For the same compound, the relative viability (EBC-1; first compound 0.2 µM) was 0.131, the relative viability (IA-LM; first compound 0.002 µM) was 0.752 and the relative viability (IA-LM; first compound 0.006325 µM) was 0.788. For the same compound, the relative viability (IA-LM; first compound 0.02 µM) was 0.268, the relative viability (IA-LM; first compound 0.06325 µM) was 0.0487 and the relative viability (IA-LM; first compound 0.2 µM) was 0.05. For the same compound, the relative viability (LK-2; first compound 0.002 µM) was 1.26, the relative viability (LK-2; first compound 0.006325 µM) was 1.31 and the relative viability (LK-2; first compound 0.02 µM) was 0.691. The relative viability (LK-2; first compound 0.06325 µM) was 0.71, the relative viability (LK-2; first compound 0.2 µM) was 0.259 and the relative viability (NCI-H1299; first compound 0.002 µM) was 1. It also gave a relative viability (NCI-H1299; first compound 0.006325 µM) of 1, a relative viability (NCI-H1299; first compound 0.02 µM) of 1.15 and a relative viability (NCI-H1299; first compound 0.06325 µM) of 0.961. For the same compound, the relative viability (NCI-H1299; first compound 0.2 µM) was 0.483, the relative viability (NCI-H1651; first compound 0.002 µM) was 0.899 and the relative viability (NCI-H1651; first compound 0.006325 µM) was 0.854. The relative viability (NCI-H1651; first compound 0.02 µM) was 0.881, the relative viability (NCI-H1651; first compound 0.06325 µM) was 0.42 and the relative viability (NCI-H1651; first compound 0.2 µM) was 0.262. The relative viability (NCI-H1703; first compound 0.002 µM) was 0.378, the relative viability (NCI-H1703; first compound 0.006325 µM) was 0.367 and the relative viability (NCI-H1703; first compound 0.02 µM) was 0.186. The relative viability (NCI-H1703; first compound 0.06325 µM) was 0.133, the relative viability (NCI-H1703; first compound 0.2 µM) was 0.116 and the relative viability (NCI-H1755; first compound 0.002 µM) was 0.972. The relative viability (NCI-H1755; first compound 0.006325 µM) was 0.887, the relative viability (NCI-H1755; first compound 0.02 µM) was 0.823 and the relative viability (NCI-H1755; first compound 0.06325 µM) was 0.905. The relative viability (NCI-H1755; first compound 0.2 µM) was 0.561.
